For one series, the system named is SF-295. Kind of series: NCI screening panel (SRB). It is filed as cell-based. The settings on record: Homo sapiens, SF-295 (CNS), 48 h; for CC50: read-out: LC50 (the source's name).
Another series relates to IGROV1. The series is described as follows: NCI screening panel (SRB). Particulars: Homo sapiens, IGROV-1, IGROV1 (Ovarian), 48 h; for CC50: read-out: LC50 (the source's name). It is filed as cell-based.
Another series has as its system A498. Kind of series: NCI screening panel (SRB). It is filed as cell-based. Particulars: Homo sapiens, A498 (Renal), 48 h; for CC50: read-out: LC50 (the source's name).
A further series relates to SN12C. Kind of series: NCI screening panel (SRB). It is filed as cell-based. Particulars: Homo sapiens, SN12C (Renal), 48 h; for CC50: read-out: LC50 (the source's name).
For series [1], the target named is EGFR (L747-E749del, A750P) (Homo sapiens, UniProt P00533, A750P/DEL747-749). Kind of series: Kinase assays, selectivity panel (qPCR). Particulars: read-out: % Control @ 300 nM. A general note: Real-time PCR tracks product formation cycle by cycle.
Series [2] concerns the target EGFR (L747-S752del, P753S) (Homo sapiens, UniProt P00533, DEL747-752/P753S). Kind of series: Kinase assays, selectivity panel (qPCR). The settings on record: read-out: % Control @ 300 nM.
A further series addresses EGFR (L861Q) (Homo sapiens, UniProt P00533, L861Q). Kind of series: Kinase assays, selectivity panel (qPCR). The settings on record: read-out: % Control @ 300 nM.
For a further series, the target named is CYP 1A2 (Homo sapiens, UniProt P05177). Kind of series: CYP450 inhibition. It is filed as in vitro ADME. The protocol: (§1) Prepare stock solutions of the test compound and positive control compounds described in Table 8 in DMSO at 0, 0.2, 1, 2, 10, 50, 200, 2000 and 10000 μM. Transfer 1 μL of the stock solutions to the Incubation Plate. The final concentrations of test compound or positive control compound are 0, 0.001, 0.005, 0.01, 0.05, 0.25, 1, 10 and 50 μM. All experiments are performed in duplicate.

The next series has as its target CYP 2C19 (Homo sapiens, UniProt P33261). Kind of series: CYP450 inhibition. It is filed as in vitro ADME. The procedure: as §1
The target of a further series is CYP 2C9 (Homo sapiens, UniProt P11712). The series is described as follows: CYP450 inhibition. It is filed as in vitro ADME. The protocol: as §1
The target in the next series is CYP 2D6 (Homo sapiens, UniProt P10635). Kind of series: CYP450 inhibition. It is filed as in vitro ADME. The procedure: as §1
Another series is described as follows: Plasma stability. It is filed as in vitro ADME. The protocol:
Thaw the frozen plasma immediately in a 37° C. water bath. Centrifuge plasma at 3,220 g for 10 minutes at room temperature to remove clots and collect supernatant into a fresh tube. Check and record the pH of the plasma. (Note: a. Only use plasma that has been thawed no more than twice since arrival. b. Only use plasma within the range of pH 7 to pH 8.)
The working solutions of test compounds and control compound are prepared in 50% water/50% acetonitrile and DMSO at the concentration of 100 μM, respectively. Propantheline is used as positive control for human and mouse plasma stability assay and mevinolin is used as the positive control for dog and rat plasma stability assay.
Add 5 μL of 100 μM working solution to 495 μL of pre-incubated human, monkey, dog, rat or mouse plasma to reach a final concentration of 1 μM. The final concentration of organic solvents is 0.5%. The assay is performed in duplicate. Incubate the reaction samples at 37° C. water bath with shaking at approximately 60 rpm. Take aliquots of 50 μL from the reaction samples at 0, 15, 30, 45, 60 and 120 minutes. Stop the reaction by adding 300 μL of room temperature quench solution (Acetonitrile containing internal standards (IS, 200 nM Labetalol, 100 nM Alprazolam and 2 μM Ketoprofen)). Vortex for 5 minutes. Centrifuge samples in plate at 3,220 g for 30 minutes at room temperature to precipitate protein. Transfer 100 μL of the supernatant to a new plate. The supernatant may be diluted with 100 μL or 200 μL water according to the LC/MS signal response and peak shape. Mix well and analyze samples using LC/MS/MS.

A short description of series [3]: Log D determination (1-octanol/buffer). It is filed as physicochemical. The protocol: Prepare the stock solutions of test compounds and control compound progesterone in DMSO at the concentration of 30 mM. If test compound could not be dissolved completely, make a 10 mM stock solution with DMSO.
Place 5 μL of stock solution (30 mM) or 15 μL of stock solution (10 mM) of each sample in order into their proper 96-well rack. […] Add one stir stick to each vial and seal using a molded PTFE/Silicone plug. […] After completion of incubation, remove the stir sticks using a big magnet. Then centrifuge the samples at 25° C. at 20,000 g for 20 minutes to separate the phases, and use pipette and syringe to remove the upper (1-octanol) and lower (buffer) phases to the empty tubes, respectively. Take aliquots of 5 μL from upper phases followed by addition of 495 μL of methanol. Vortex for 1 minute, and then take aliquots of 50 μL from the diluent followed by addition of 450 μL of methanol. And take aliquots of 50 μL from lower phases followed by addition of 450 μL of methanol. A certain proportion of ultrapure water may be used according to the peak shape. The dilution factor may be changed according to the Log D value and the LC/MS signal response.

Series [4] can be described thus: Log P determination (HPLC with reference substances). It is filed as physicochemical. Particulars: HPLC retention against reference substances of known log P. The protocol: Prepare thiourea in acetonitrile and ultrapure water mixture (1:1 in v:v) as unretained organic substance sample. Prepare acetanilide, methyl benzoate, benzophenone, benzyl benzoate, fluoranthene and DDT in acetonitrile and ultrapure water mixture (1:1 in v:v) as reference substances mixture.
Prepare the stock solutions of test compounds and control compound progesterone in acetonitrile at the concentration of 2 mM. Dilute one volume of the stock solution with one volume of ultrapure water. If not soluble, filtrate the sample using a 0.45 μm nylon membrane.
Prepare acidic or basic mobile phase according to the character of test compounds. Run a blank sample (ultrapure water mixture (1:1 in v:v)), followed by unretained organic substance sample and reference substances mixture. Then run the test compounds and control compound in singlet, and at the end of the batch rerun the reference substances mixture.

SMILES strings stand for the structures.

Chain of EGFR (L747-S752del, P753S) (P00533 with tags, fused parts or gaps DEL747-752/P753S): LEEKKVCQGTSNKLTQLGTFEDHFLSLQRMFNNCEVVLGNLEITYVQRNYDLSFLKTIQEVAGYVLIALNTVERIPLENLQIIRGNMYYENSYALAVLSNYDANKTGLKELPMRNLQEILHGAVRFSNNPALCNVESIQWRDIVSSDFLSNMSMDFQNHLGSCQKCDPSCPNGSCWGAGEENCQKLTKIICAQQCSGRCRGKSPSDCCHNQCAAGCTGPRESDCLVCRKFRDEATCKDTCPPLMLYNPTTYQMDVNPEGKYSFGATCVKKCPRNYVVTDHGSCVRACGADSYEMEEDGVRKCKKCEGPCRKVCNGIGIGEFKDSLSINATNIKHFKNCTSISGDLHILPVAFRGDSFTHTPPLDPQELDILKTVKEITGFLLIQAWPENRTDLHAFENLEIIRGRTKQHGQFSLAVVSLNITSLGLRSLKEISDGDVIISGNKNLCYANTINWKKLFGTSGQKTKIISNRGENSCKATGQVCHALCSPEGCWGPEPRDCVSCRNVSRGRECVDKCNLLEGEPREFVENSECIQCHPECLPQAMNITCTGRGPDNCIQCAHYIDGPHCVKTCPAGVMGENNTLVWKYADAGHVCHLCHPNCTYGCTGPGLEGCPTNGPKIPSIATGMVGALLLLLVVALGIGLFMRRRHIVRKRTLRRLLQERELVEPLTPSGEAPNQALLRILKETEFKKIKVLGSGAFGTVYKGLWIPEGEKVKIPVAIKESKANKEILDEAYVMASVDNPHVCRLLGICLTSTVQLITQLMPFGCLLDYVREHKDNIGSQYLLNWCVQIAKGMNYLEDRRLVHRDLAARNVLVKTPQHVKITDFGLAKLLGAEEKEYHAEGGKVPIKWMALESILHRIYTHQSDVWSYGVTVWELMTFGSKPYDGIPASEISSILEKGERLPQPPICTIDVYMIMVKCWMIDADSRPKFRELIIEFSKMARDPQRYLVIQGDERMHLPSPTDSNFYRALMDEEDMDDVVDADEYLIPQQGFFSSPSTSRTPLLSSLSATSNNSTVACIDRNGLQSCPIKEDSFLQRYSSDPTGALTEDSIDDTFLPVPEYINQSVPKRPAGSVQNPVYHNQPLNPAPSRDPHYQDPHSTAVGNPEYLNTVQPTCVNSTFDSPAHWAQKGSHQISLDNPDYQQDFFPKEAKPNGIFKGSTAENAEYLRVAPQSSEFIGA
Chain of CYP 1A2 (P05177 whole entry): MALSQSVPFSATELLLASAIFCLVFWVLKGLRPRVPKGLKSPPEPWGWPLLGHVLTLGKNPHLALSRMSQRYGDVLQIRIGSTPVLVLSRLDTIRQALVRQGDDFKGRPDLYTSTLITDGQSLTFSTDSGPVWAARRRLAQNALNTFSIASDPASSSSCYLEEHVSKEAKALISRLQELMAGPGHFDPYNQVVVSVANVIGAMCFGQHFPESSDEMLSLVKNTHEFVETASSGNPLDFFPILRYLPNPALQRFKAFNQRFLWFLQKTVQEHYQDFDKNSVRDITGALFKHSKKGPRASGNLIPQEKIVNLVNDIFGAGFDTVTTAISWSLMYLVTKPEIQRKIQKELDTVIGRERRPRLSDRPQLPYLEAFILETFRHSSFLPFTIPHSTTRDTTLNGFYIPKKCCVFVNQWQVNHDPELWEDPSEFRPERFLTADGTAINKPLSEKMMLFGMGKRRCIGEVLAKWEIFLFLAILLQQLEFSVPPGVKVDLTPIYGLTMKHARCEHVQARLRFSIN
Chain of CYP 2C9 (P11712 whole entry): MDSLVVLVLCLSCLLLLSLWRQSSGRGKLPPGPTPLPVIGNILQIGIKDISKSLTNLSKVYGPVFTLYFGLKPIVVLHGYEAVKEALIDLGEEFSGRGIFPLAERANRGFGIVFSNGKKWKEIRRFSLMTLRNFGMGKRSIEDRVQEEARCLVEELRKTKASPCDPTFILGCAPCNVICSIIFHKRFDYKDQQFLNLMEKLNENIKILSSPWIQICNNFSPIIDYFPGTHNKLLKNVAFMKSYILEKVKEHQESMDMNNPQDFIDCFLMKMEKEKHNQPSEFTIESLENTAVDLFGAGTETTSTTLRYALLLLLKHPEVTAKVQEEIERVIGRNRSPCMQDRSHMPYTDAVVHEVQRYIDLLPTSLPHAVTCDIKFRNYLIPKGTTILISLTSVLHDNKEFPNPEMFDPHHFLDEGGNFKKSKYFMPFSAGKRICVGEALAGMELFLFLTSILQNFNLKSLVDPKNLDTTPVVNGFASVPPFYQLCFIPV
Chain of CYP 2C19 (P33261 whole entry): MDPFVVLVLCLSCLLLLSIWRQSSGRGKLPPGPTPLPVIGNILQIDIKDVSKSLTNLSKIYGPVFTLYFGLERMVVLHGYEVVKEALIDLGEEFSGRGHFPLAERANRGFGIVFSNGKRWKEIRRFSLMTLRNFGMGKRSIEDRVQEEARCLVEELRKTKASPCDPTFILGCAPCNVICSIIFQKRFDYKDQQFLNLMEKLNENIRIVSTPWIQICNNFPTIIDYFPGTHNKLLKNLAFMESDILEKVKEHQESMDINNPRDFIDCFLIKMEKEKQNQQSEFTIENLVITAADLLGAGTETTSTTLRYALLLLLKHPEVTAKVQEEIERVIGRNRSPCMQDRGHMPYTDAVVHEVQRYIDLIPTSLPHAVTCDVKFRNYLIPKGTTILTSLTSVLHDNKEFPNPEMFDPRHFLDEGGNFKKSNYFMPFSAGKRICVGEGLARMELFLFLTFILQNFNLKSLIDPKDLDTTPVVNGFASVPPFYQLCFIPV
Chain of CYP 2D6 (P10635 whole entry): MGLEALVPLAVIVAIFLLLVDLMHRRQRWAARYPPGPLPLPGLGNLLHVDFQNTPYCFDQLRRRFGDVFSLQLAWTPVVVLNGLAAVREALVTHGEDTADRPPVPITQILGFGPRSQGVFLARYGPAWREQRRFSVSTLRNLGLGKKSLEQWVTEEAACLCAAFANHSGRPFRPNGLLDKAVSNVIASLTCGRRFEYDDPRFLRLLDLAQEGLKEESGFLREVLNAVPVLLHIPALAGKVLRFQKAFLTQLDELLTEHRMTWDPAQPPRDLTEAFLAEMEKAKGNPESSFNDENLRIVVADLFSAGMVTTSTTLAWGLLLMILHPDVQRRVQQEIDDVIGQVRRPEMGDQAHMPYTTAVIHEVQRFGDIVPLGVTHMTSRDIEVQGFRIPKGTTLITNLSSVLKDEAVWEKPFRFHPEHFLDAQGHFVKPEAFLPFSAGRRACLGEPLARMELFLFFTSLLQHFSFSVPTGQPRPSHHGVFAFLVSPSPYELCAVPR
Chain of EGFR (L747-E749del, A750P) (P00533 with tags, fused parts or gaps DEL747-749/A750P): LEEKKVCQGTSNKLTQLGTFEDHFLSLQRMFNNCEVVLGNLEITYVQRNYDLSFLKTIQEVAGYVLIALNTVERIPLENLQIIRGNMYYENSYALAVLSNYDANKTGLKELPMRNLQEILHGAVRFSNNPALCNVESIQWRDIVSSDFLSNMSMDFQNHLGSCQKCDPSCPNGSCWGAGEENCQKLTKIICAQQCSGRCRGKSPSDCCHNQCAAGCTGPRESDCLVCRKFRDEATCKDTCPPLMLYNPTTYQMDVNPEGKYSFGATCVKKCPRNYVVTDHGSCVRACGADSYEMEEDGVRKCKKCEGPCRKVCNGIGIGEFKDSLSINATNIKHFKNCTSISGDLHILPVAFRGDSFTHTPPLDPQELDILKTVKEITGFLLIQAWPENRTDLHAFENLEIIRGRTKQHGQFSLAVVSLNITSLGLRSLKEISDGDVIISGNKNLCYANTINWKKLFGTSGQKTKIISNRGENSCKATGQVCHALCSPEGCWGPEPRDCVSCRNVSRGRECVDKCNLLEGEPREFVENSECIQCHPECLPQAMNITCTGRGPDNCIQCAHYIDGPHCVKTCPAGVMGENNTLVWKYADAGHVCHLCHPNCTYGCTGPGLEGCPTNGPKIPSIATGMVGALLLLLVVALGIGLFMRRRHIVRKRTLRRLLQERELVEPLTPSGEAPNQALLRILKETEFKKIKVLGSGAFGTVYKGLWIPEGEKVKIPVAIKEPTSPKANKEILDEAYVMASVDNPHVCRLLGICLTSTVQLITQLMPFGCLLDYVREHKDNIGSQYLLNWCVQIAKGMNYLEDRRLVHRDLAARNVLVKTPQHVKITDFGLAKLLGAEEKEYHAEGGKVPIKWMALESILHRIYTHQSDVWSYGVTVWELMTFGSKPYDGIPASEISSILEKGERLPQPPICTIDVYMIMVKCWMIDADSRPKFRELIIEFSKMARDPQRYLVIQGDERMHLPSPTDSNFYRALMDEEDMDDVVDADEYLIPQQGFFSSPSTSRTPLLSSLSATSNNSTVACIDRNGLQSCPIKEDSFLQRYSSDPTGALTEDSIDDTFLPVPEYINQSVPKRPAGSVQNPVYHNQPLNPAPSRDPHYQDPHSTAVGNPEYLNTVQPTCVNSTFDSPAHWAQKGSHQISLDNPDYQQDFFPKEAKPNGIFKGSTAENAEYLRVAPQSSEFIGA

By GI50 is commonly meant the concentration that inhibits growth by half. As to `CN(C)C/C=C/C(=O)Nc1cc2c(Nc3ccc(F)c(Cl)c3F)ncnc2cc1OCCOC(F)F.O=C(O)/C=C\C(=O)O.O=C(O)/C=C\C(=O)O` [Example I-9-MA, (E)-N-[4-(3-chloro-2,4-difluoro-anilino)-7-[2-(difluoromethoxy)ethoxy]quinazolin-6-yl]-4-(dimethylamino)but-2-enamide di-maleic acid salt], the GI50 with SF-295 was 2.05 µM; in the series with IGROV1, less than 0.01 µM; with A498, 0.319 µM; with SN12C, 0.054 µM. Moreover, the CC50 stood at 33 µM in the series on SF-295, 32.5 µM in the series with IGROV1, 6 µM in the series with A498 and 28.1 µM in the series with SN12C. For the same compound, the remaining activity at 0.3 µM in series [1] came out at 0.45%; in [2], 2.8%; on EGFR (L861Q), 0.1%.

As to `O=C(/C=C/CN1CCCCC1)Nc1cc2c(Nc3ccc(F)c(Cl)c3F)ncnc2cc1OCCOC(F)F.O=C(O)/C=C\C(=O)O.O=C(O)/C=C\C(=O)O` [Example I-10-MA, (E)-N-[4-(3-chloro-2,4-difluoro-anilino)-7-[2-(difluoromethoxy)ethoxy]quinazolin-6-yl]-4-(1-piperidyl)but-2-enamide di-maleic acid salt], the GI50 is 1.91 µM in the series with SF-295, 0.0331 µM in the series on IGROV1, 0.313 µM in the series with A498 and 0.281 µM in the series on SN12C. Moreover, the CC50 is 16 µM with SF-295, greater than 100 µM in the series on IGROV1, 5.92 µM in the series on A498 and 41.2 µM with SN12C. Moreover, the remaining activity at 0.3 µM in [1] stood at 0.9%; in series [2], 2.5%; on EGFR (L861Q), 0.75%.

As a reminder, the IC50 is the concentration needed to halve the response being measured. One may read the logD as the decadic logarithm of the distribution of all forms, ionised or not, between an organic phase and buffer at a given pH. As a reminder, the chromatographic logP is lipophilicity estimated from chromatographic retention. For the compound `CN(C)C/C=C/C(=O)Nc1cc2c(Nc3cccc(Cl)c3F)ncnc2cc1OCCOC(F)F.O=C(O)/C=C\C(=O)O` [Example I-5-MA, (E)-N-[4-(3-chloro-2-fluoro-anilino)-7-[2-(difluoromethoxy)ethoxy]quinazolin-6-yl]-4-(dimethylamino)but-2-enamide dimaleic acid salt], the IC50 against CYP 1A2 was greater than 50 µM; against CYP 2C19, 29.1 µM; on CYP 2C9 it was 30 µM; at CYP 2D6, 25.7 µM. The “Dog Remaining Percentage (%)” value in the series “Plasma stability” (60 min) stood at 104.57%; in the series “Plasma stability” (120 min), 102.13%. The figures for the “Human Remaining Percentage (%)” value in the series “Plasma stability” (60 min) and in “Plasma stability” (120 min) were 101.95% and 95.45%, respectively. Further, the “Monkey Remaining Percentage (%)” value in “Plasma stability” (60 min) came out at 85.79%; in “Plasma stability” (120 min), 83.32%. For the same compound, the figures for the “Mouse Remaining Percentage (%)” value in the series “Plasma stability” (60 min) and in “Plasma stability” (120 min) were 95.45% and 105.25%, respectively. Also, the “Rat Remaining Percentage (%)” value in the series “Plasma stability” (60 min) is listed as 99.28%; in “Plasma stability” (120 min) it was 95.14%. Also, the log distribution coefficient (logD) in [3] (pH 2.0) was -2.17; in series [3] (pH 7.4), 3.2. The compound also came in with a chromatographic logP in series [4] of 3.57.

Turning to `CN(C)C/C=C/C(=O)Nc1cc2c(Nc3ccc(F)c(Cl)c3)ncnc2cc1O[C@H]1CCOC1` [Afatinib, reference compound], the IC50 against CYP 1A2 was greater than 50 µM; against CYP 2C19, 47.8 µM; on CYP 2C9 it was 34.7 µM; against CYP 2D6, 28 µM. Besides, the entries for the “Dog Remaining Percentage (%)” value in “Plasma stability” (60 min) and in “Plasma stability” (120 min) were 111.61% and 102.15%, respectively. Moreover, the “Human Remaining Percentage (%)” value was determined as 94.78% in the series “Plasma stability” (60 min) and 98.62% in “Plasma stability” (120 min). In addition, the “Monkey Remaining Percentage (%)” value stood at 102.98% in the series “Plasma stability” (60 min) and 97.24% in the series “Plasma stability” (120 min). Moreover, the “Mouse Remaining Percentage (%)” value was 101.81% in “Plasma stability” (60 min) and 106.59% in “Plasma stability” (120 min). In addition, the “Rat Remaining Percentage (%)” value worked out at 101.43% in the series “Plasma stability” (60 min) and 95.31% in “Plasma stability” (120 min). Also, the pH-dependent lipophilicity (logD) in [3] (pH 2.0) was -2.46; in series [3] (pH 7.4) it was 3.18. In series [4], this compound returned a chromatographic logP of 4.26.

These data come from patent US20190016689A1, “NOVEL FLUORINATED QUINAZOLINE DERIVATIVES AS EGFR INHIBITORS” (TRILLIUM THERAPEUTICS INC., priority 2016, published 2019).
